Measurements as given in patent publication US8436013B2, “Compounds and methods for treatment of alpha-1 antitrypsin deficiency” (University of Florida Research Foundation, Inc., priority 2007, dated 2013).
“Also recorded” adds a separate entry of the source.

Key:
[1] = system: human ATZ transgenic model; details: cited from earlier work
[2] = biological target: T1, ATZ (Homo sapiens, UniProt P01009, E366K); assay: ATZ secretion from CHO-ATZ cells, ELISA of culture supernatant; assay type: cell-based; details: various concentrations, supernatants at 24, 48 and 72 hours, DMSO controls
T1 construct: expressed in transfected cells; host or cells: CHO-ATZ cells
T1 sequence (P01009 25-418 E366K): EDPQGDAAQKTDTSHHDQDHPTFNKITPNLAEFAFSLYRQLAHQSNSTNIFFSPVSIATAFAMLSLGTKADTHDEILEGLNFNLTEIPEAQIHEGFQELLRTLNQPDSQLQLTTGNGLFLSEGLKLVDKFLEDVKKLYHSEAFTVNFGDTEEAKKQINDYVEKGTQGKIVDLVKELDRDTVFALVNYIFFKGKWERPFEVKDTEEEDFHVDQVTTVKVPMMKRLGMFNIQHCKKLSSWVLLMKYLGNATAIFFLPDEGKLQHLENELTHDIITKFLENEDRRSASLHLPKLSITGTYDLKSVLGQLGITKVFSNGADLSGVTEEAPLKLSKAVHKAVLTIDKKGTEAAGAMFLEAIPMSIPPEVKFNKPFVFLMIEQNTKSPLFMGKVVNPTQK
Protocol: FIG. 3. Effects of small molecule compounds on AAT secretion in cells. The CHO-ATZ cells were treated with various concentrations of NCI compounds. The culture supernatants were harvested for ELISA analysis. The data represent the means from 4-separate experiments.
Compounds listed in Table 1 were obtained from NCI/DTP. The compounds were dissolved in DMSO. As the first step, the compounds were tested in CHO-ATZ cells. Various concentrations of the compounds were added to the cells. The supernatants were harvested at time points: 24, 48, and 72 hours. The samples were then used for ELISA assay for human AAT.
(§1) Compounds were used to treat CHO-ATZ cells at various concentrations. Cell supernatant was harvested at different time points. ELISA test was performed to determine the level of ATZ in the supernatant. The cells were also harvested for Western blot analysis.

[3] = system: transgenic mice carrying a human ATZ transgene; assay: Serum AAT level (ELISA) in transgenic mice carrying a human ATZ transgene; assay type: in vivo; details: treated for two weeks
Protocol: FIG. 6. Compounds according to the invention can increase AAT secretion in transgenic animals. The animals were treated for two weeks. Serum AAT levels were determined by ELISA assay.
Two test compounds were administered to transgenic mice (four animals per group, including control) carrying a human ATZ transgene to determine whether the compounds are capable of increasing AAT secretion in a transgenic animal model. The animals were treated for two weeks. Serum AAT levels were determined by ELISA assay.

[4] = system: AAT-Z transgenic mice; assay: Liver histology (PASD staining, inflammation) in AAT-Z transgenic mice; assay type: in vivo; details: i.p. injection for 7 days, vs control
Protocol: FIG. 7. Compounds according to the invention decrease AAT accumulation and reduce inflammation in liver cells compared to control. AAT-Z transgenic mice were treated by i.p. injection of a compound or control for 7 days, followed by collection of liver tissue.
Compounds according to the invention decrease AAT accumulation and reduce inflammation in liver cells compared to control. AAT-Z transgenic mice were treated by i.p. injection of a compound or control for 7 days, followed by collection of liver tissue.

[5] = biological target: T1, ATZ; assay: Pulse-chase (35S labelling, anti-AAT immunoprecipitation) ATZ secretion in CHO cells; assay type: cell-based; details: CHO cells labeled with 35S, vs DMSO control
Text: FIG. 5. Polymer inhibitor (1,9-decadiene) increases ATZ secretion. The cells were labeled with ^35S and harvested at the indicated time points. The protein extracts were immunoprecipitated using anti-AAT antibody. The immunocomplexes were then resolved in PAGE gel. The intensity of AAT bands were then quantified and calculated. FIG. 5A is the cells treated with DMSO control; FIG. 5B represents result of cells with polymer inhibitor treatment. […] A non-denaturing gel was used to analyze cell extracts from compound-treated CHO ATZ cells.

[6] = biological target: T1, ATZ; assay: ATZ accumulation in treated cells, Western blot; assay type: cell-based; details: cells treated with polymer inhibitor vs controls
Protocol: FIG. 4. Polymer inhibitor (1,9-decadiene) reduces the ATZ accumulation in cells. Cells were treated with polymer inhibitor and harvested for Western blot analysis.
as §1
We then examined these two potentially effective inhibitors. The cells were treated by the inhibitors, followed by protein extraction and Western blot analysis.

Structure (SMILES) | blood levels of AAT [1] | ATZ secretion (ELISA of supernatant) [2] | ATZ secretion (ELISA of supernatant) ([2]; listed as NSC 21034) | AAT serum level enhancement [3] | AAT accumulation in hepatocytes (PASD staining) [4] | liver tissue inflammation [4] | ATZ secretion (ELISA of supernatant) ([2]; listed as NSC 102789) | ATZ secretion (pulse-chase) [5] | ATZ accumulation in cells (Western blot) [6]
O=C(O)CCCc1ccccc1 [4-phenylbutyric acid] | can increase blood levels of AAT | – | – | – | – | – | – | – | –
O=C(O)/C=C/c1cc2c(cc1[N+](=O)[O-])OCO2 [3,4-methylenedioxy-6-nitrocinnamic acid] | – | effectively enhance ATZ secretion in the cells | appear to be effective for inhibition of ATZ secretion | more than two-fold | decrease AAT accumulation in hepatocytes | reduced live tissue inflammation | – | – | –
C=CCCCCCCC=C [1,9-decadiene] | – | effectively enhance ATZ secretion in the cells | – | more than two-fold | decrease AAT accumulation in hepatocytes | reduced live tissue inflammation | appear to be effective for inhibition of ATZ secretion | increases the ATZ secretion in the supernatant | reduced amount of ATZ; also recorded: effectively reduce the accumulation of ATZ in cells
